Measured values from PMC8880564, “Design, Synthesis, and Biological Evaluation of a Novel VEGFR-2 Inhibitor Based on a 1,2,5-Oxadiazole-2-Oxide Scaffold with MAPK Signaling Pathway Inhibition” (Pharmaceuticals, 2022).

Experiments:
Experiment in all cases: NCI-60 one-dose SRB screening
Format in all cases: cell-based
NCI-H522 = conditions: Homo sapiens, NCI-H522, Non-Small Cell Lung Cancer, 10 µM one dose, 48 h, read-out: growth percentage
Method: (§1) The structures of the synthesized compounds 6a–h, 12a–c, 11, 13a–c, and 14a–c were submitted to the National Cancer Institute’s Developmental Therapeutics Program (NCI-DTP), and all of them were selected for preliminary in vitro anticancer activity screening against NCI-59 human cancer cell lines at a concentration of 10 µM, using the sulforhodamine B (SRB) assay to determine the growth percentage and cell viability.
(§2) The in vitro NCI-60 cell line screening assay was conducted at the National Cancer Institute (NCI), Bethesda, USA against 59 cancer cell lines representing 9 types of cancers, as reported earlier. Briefly, the human cancer cell lines were grown in RPMI 1640 medium containing 5% fetal bovine serum and 2 mM L-glutamine and inoculated into 96-well microtiter plates in 100 μL (5000 to 40,000 cells/well). Then, the plates were incubated at 37 °C, 5% CO2, 95% air, and 100% relative humidity for 24 h. After that, two plates of each cell line were fixed in situ with TCA, to represent cell population at time zero (Tz). The tested compounds were dissolved in DMSO at 400-fold and added so that the final concentration became 10 μM. The plates were then incubated for an additional 48 h followed by the addition of cold TCA to terminate the assay in case of adherent cells. Then, the cells were fixed in situ by cold 50% (w/v) TCA (50 μL; final concentration, 10% TCA) and incubated for 1 h at 4 °C. After discarding the supernatant, the plates were washed 5 times with tap water and air dried. Sulforhodamine B (SRB) solution (100 μL) at 0.4% (w/v) in 1% HOAc was added to each well, and plates were incubated for 10 min. at rt. Then, washing with 1% acetic acid was conducted 5 times to remove the unbound dye followed by air drying. After that, 10 mM trizma base was added to solubilize the bound stain, and the absorbance was read on an automated plate reader at a wavelength of 515 nm. On the other hand, the methodology for suspension cells was the same except that 50 μL of 80% TCA (final concentration, 16% TCA) was gently added to terminate the assay by fixing settled cells at the bottom of the wells. Percentage growth inhibition (GI%) was calculated as follows:
(§3) Growth percentage=Ti (test growth in the presence of compound at 10 µM )−Tz (time zero)/C (control growth)−Tz (time zero)×100 for Ti ≥ Tz;
(§4) Growth percentage=Ti (test growth in the presence of compound at 10 µM )−Tz (time zero)/Tz (time zero)×100 for Ti < Tz.
(§5) where values of 100, 40, 0, −40, and −100 mean no GI, 60% GI, no net G, 40% lethality, and all cells are dead, respectively.

HL-60(TB) = conditions: Homo sapiens, Leukemia, 10 µM one dose, 48 h, read-out: growth percentage
Method: as §1, §2, §3, §4, §5

T-47D = conditions: Homo sapiens, T47D, Breast Cancer, 10 µM one dose, 48 h, read-out: growth percentage
Method: as §1, §2, §3, §4, §5

SF-539 = conditions: Homo sapiens, SF-539, CNS Cancer, 10 µM one dose, 48 h, read-out: growth percentage
Method: as §1, §2, §3, §4, §5

OVCAR-5 = conditions: Homo sapiens, OVCAR-5, Ovarian Cancer, 10 µM one dose, 48 h, read-out: growth percentage
Method: as §1, §2, §3, §4, §5

786-0 = conditions: Homo sapiens, 786-0, Renal Cancer, 10 µM one dose, 48 h, read-out: growth percentage
Method: as §1, §2, §3, §4, §5

ACHN = conditions: Homo sapiens, Renal Cancer, 10 µM one dose, 48 h, read-out: growth percentage
Method: as §1, §2, §3, §4, §5

SN12C = conditions: Homo sapiens, Renal Cancer, 10 µM one dose, 48 h, read-out: growth percentage
Method: as §1, §2, §3, §4, §5

K-562 = conditions: Homo sapiens, K562, K-562, Leukemia, 10 µM one dose, 48 h, read-out: growth percentage
Method: as §1, §2, §3, §4, §5

HOP-92 = conditions: Homo sapiens, HOP-92, Non-Small Cell Lung Cancer, 10 µM one dose, 48 h, read-out: growth percentage
Method: as §1, §2, §3, §4, §5

COLO 205 = conditions: Homo sapiens, COLO 205, Colon Cancer, 10 µM one dose, 48 h, read-out: growth percentage
Method: as §1, §2, §3, §4, §5

NCI/ADR-RES = conditions: Homo sapiens, Ovarian Cancer, 10 µM one dose, 48 h, read-out: growth percentage
Method: as §1, §2, §3, §4, §5

HCT-116 = conditions: Homo sapiens, HCT-116, Colon Cancer, 10 µM one dose, 48 h, read-out: growth percentage
Method: as §1, §2, §3, §4, §5

HCT-15 = conditions: Homo sapiens, HCT-15, Colon Cancer, 10 µM one dose, 48 h, read-out: growth percentage
Method: as §1, §2, §3, §4, §5

LOX IMVI = conditions: Homo sapiens, Melanoma, 10 µM one dose, 48 h, read-out: growth percentage
Method: as §1, §2, §3, §4, §5

OVCAR-3 = conditions: Homo sapiens, OVCAR-3, Ovarian Cancer, 10 µM one dose, 48 h, read-out: growth percentage
Method: as §1, §2, §3, §4, §5

HOP-62 = conditions: Homo sapiens, HOP-62, Non-Small Cell Lung Cancer, 10 µM one dose, 48 h, read-out: growth percentage
Method: as §1, §2, §3, §4, §5

MDA-MB-231/ATCC = conditions: Homo sapiens, Breast Cancer, 10 µM one dose, 48 h, read-out: growth percentage
Method: as §1, §2, §3, §4, §5

A498 = conditions: Homo sapiens, A498, Renal Cancer, 10 µM one dose, 48 h, read-out: growth percentage
Method: as §1, §2, §3, §4, §5

SF-295 = conditions: Homo sapiens, SF-295, CNS Cancer, 10 µM one dose, 48 h, read-out: growth percentage
Method: as §1, §2, §3, §4, §5

IGROV1 = conditions: Homo sapiens, IGROV-1, IGROV1, Ovarian Cancer, 10 µM one dose, 48 h, read-out: growth percentage
Method: as §1, §2, §3, §4, §5

NCI-H23 = conditions: Homo sapiens, NCI-H23, Non-Small Cell Lung Cancer, 10 µM one dose, 48 h, read-out: growth percentage
Method: as §1, §2, §3, §4, §5

Row | Compound | activity at 10 µM (NCI-H522) | activity at 10 µM (HL-60(TB)) | activity at 10 µM (T-47D) | activity at 10 µM (SF-539) | activity at 10 µM (OVCAR-5) | activity at 10 µM (786-0) | activity at 10 µM (ACHN) | activity at 10 µM (SN12C) | activity at 10 µM (K-562) | activity at 10 µM (HOP-92) | activity at 10 µM (COLO 205) | activity at 10 µM (NCI/ADR-RES) | activity at 10 µM (HCT-116) | activity at 10 µM (HCT-15) | activity at 10 µM (LOX IMVI) | activity at 10 µM (OVCAR-3) | activity at 10 µM (HOP-62) | activity at 10 µM (MDA-MB-231/ATCC) | activity at 10 µM (A498) | activity at 10 µM (SF-295) | other results
1 | Cc1nn(-c2ccc(Br)cc2)c2nc(CNc3ccc(NCc4c(-c5ccccc5)no[n+]4[O-])cc3)[nH]c(=O)c12 [14c, 3-(((4-(((1-(4-bromophenyl)-3-methyl-4-oxo-4,5-dihydro-1H-pyrazolo[3,4-d]pyrimidin-6-yl)methyl)amino)phenyl)amino)methyl)-4-phenyl-1,2,5-oxadiazole 2-oxide] | 90.8% | 103% | 103% | 102% | 110% | 119% | 96.9% | 98.8% | 111% | 108% | 115% | 101% | 93.8% | 97.3% | 102% | 93.9% | 116% | 96.5% | 104% | 115% | activity at 10 µM (IGROV1): 85.6%; activity at 10 µM (NCI-H23): 103%
2 | Cc1nc(Nc2ccc(OCc3c(-c4ccccc4)no[n+]3[O-])cc2)c2c(C)nn(-c3ccc(Br)cc3)c2n1 [6h, 3-((4-((1-(4-bromophenyl)-3,6-dimethyl-1H-pyrazolo[3,4-d]pyrimidin-4-yl)amino)phenoxy)methyl)-4-phenyl-1,2,5-oxadiazole 2-oxide] | 84% | 70.8% | 81.4% | 96.1% | 102% | 107% | 98.7% | 96.4% | 83.6% | 94.6% | 94.4% | 102% | 71.5% | 79% | 98.9% | 104% | 104% | 100% | 110% | 105% | activity at 10 µM (IGROV1): 99%; activity at 10 µM (NCI-H23): 96.6%
3 | [O-][n+]1onc(-c2ccccc2)c1CNc1ccc(Nc2nc(C(F)(F)F)nc3c2cnn3-c2ccc(Br)cc2)cc1 [12b, 3-(((4-((1-(4-bromophenyl)-6-(trifluoromethyl)-1H-pyrazolo[3,4-d]pyrimidin-4-yl)amino)phenyl)amino)methyl)-4-phenyl-1,2,5-oxadiazole 2-oxide] | 72.6% | 79.8% | 68.8% | 68.3% | 77.2% | 67.2% | 56.9% | 58% | 22.8% | 68.4% | 74.6% | 66.4% | 46.7% | 38.1% | 27.9% | 92% | 77.9% | 69.7% | 97.4% | 54.5% | activity at 10 µM (IGROV1): 60.1%; activity at 10 µM (NCI-H23): 72.4%
4 | O=c1[nH]c(CNc2ccc(NCc3c(-c4ccccc4)no[n+]3[O-])cc2)nc2c1cnn2-c1ccccc1 [14a, 3-(((4-(((4-oxo-1-phenyl-4,5-dihydro-1H-pyrazolo[3,4-d]pyrimidin-6-yl)methyl)amino)phenyl)amino)methyl)-4-phenyl-1,2,5-oxadiazole 2-oxide] | 60.8% | 63.1% | 42.5% | 92.6% | 64.3% | 102% | 70.4% | 79% | 49.8% | 85.4% | 101% | 79.4% | 49.6% | 71.2% | 85.5% | 73.5% | 105% | 72.5% | 86% | 71.8% | activity at 10 µM (IGROV1): 52.5%; activity at 10 µM (NCI-H23): 63.4%
5 | Cc1nn(-c2ccc(Br)cc2)c2ncnc(Nc3ccc(OCc4c(-c5ccccc5)no[n+]4[O-])cc3)c12 [6g, 3-((4-((1-(4-bromophenyl)-3-methyl-1H-pyrazolo[3,4-d]pyrimidin-4-yl)amino)phenoxy)methyl)-4-phenyl-1,2,5-oxadiazole 2-oxide] | 92% | 115% | 98.5% | 90.4% | 99.3% | 122% | 88% | 91.3% | 103% | 86.5% | 117% | 93.8% | 90.7% | 97.2% | 95% | 112% | 94% | 84.9% | 106% | 87.6% | activity at 10 µM (IGROV1): 88.2%; activity at 10 µM (NCI-H23): 95%
6 | O=c1[nH]c(CCl)nc2c1cnn2-c1ccccc1 [13a] | 103% | 109% | 95.2% | 97.1% | 111% | 122% | 96.7% | 99.8% | 87.5% | 101% | 114% | 104% | 94.9% | 99.9% | 103% | 95.9% | 125% | 101% | 77.9% | 110% | activity at 10 µM (IGROV1): 96.2%; activity at 10 µM (NCI-H23): 101%
